Results: a compilation of properties of binary mixtures (doi:10.1021/acs.jced.2c00024)

Assay: xn = mol fraction of the nth substance listed
Conditions: 101 kPa

COCCn1cc[n+](C)c1.N#C[S-] + O=C1CCCO1
Conditions | electrical conductivity [S/m] | viscosity [mPa·s]
288.15 K, x1 = 0.1027 | 1.29 | 3.05
288.15 K, x1 = 0.1999 | 1.4 | 4.19
288.15 K, x1 = 0.3001 | 1.28 | 5.5
288.15 K, x1 = 0.4001 | 1.08 | 7.8
288.15 K, x1 = 0.5006 | 0.874 | 13
288.15 K, x1 = 0.6015 | 0.686 | 21.8
288.15 K, x1 = 0.8038 | 0.399 | 51
288.15 K, x1 = 0.9012 | 0.301 | 68
293.15 K, x1 = 0.1027 | 1.41 | 2.73
293.15 K, x1 = 0.1999 | 1.55 | 3.64
293.15 K, x1 = 0.3001 | 1.44 | 4.79
293.15 K, x1 = 0.4001 | 1.24 | 6.7
293.15 K, x1 = 0.5006 | 1.02 | 10.8
293.15 K, x1 = 0.6015 | 0.819 | 17.3
293.15 K, x1 = 0.7036 | 0.645 | 26.8
293.15 K, x1 = 0.9012 | 0.395 | 53
293.15 K, x1 = 1 | 0.315 | 67
298.15 K, x1 = 0.1027 | 1.54 | 2.44
298.15 K, x1 = 0.1999 | 1.72 | 3.18
298.15 K, x1 = 0.4001 | 1.42 | 5.8
298.15 K, x1 = 0.5006 | 1.19 | 9
298.15 K, x1 = 0.6015 | 0.975 | 13.9
298.15 K, x1 = 0.7036 | 0.788 | 21.1
298.15 K, x1 = 0.8038 | 0.636 | 30.3
298.15 K, x1 = 0.9012 | 0.516 | 42
303.15 K, x1 = 0.1027 | 1.68 | 2.21
303.15 K, x1 = 0.1999 | 1.89 | 2.82
303.15 K, x1 = 0.4001 | 1.61 | 5.1
303.15 K, x1 = 0.5006 | 1.38 | 7.7
303.15 K, x1 = 0.6015 | 1.16 | 11.5
303.15 K, x1 = 0.7036 | 0.958 | 17.1
303.15 K, x1 = 0.8038 | 0.785 | 24.4
303.15 K, x1 = 0.9012 | 0.642 | 33.3
303.15 K, x1 = 1 | 0.52 | 42.1
308.15 K, x1 = 0.1027 | 1.82 | 2
308.15 K, x1 = 0.1999 | 2.08 | 2.51
308.15 K, x1 = 0.3001 | 2.02 | 3.27
308.15 K, x1 = 0.4001 | 1.82 | 4.49
308.15 K, x1 = 0.5006 | 1.59 | 6.5
308.15 K, x1 = 0.7036 | 1.14 | 14.1
308.15 K, x1 = 0.8038 | 0.951 | 19.9
308.15 K, x1 = 1 | 0.653 | 34.4
313.15 K, x1 = 0.1999 | 2.27 | 2.25
313.15 K, x1 = 0.3001 | 2.21 | 2.89
313.15 K, x1 = 0.4001 | 2.02 | 3.94
313.15 K, x1 = 0.6015 | 1.56 | 8.2
313.15 K, x1 = 0.8038 | 1.12 | 16.5
313.15 K, x1 = 0.9012 | 0.95 | 22.5
313.15 K, x1 = 1 | 0.795 | 28.6
318.15 K, x1 = 0.1027 | 2.16 | 1.66
318.15 K, x1 = 0.1999 | 2.47 | 2.03
318.15 K, x1 = 0.5006 | 2.03 | 4.92
318.15 K, x1 = 0.6015 | 1.78 | 7
318.15 K, x1 = 0.7036 | 1.54 | 10.2
318.15 K, x1 = 0.8038 | 1.32 | 14
318.15 K, x1 = 0.9012 | 1.13 | 18.9
318.15 K, x1 = 1 | 0.954 | 23.7
323.15 K, x1 = 0.1027 | 2.35 | 1.53
323.15 K, x1 = 0.3001 | 2.66 | 2.34
323.15 K, x1 = 0.6015 | 2 | 6.1
323.15 K, x1 = 0.8038 | 1.51 | 11.9
323.15 K, x1 = 0.9012 | 1.31 | 16
323.15 K, x1 = 1 | 1.12 | 20
328.15 K, x1 = 0.1027 | 2.55 | 1.41
328.15 K, x1 = 0.1999 | 2.92 | 1.69
328.15 K, x1 = 0.3001 | 2.9 | 2.1
328.15 K, x1 = 0.4001 | 2.74 | 2.79
328.15 K, x1 = 0.5006 | 2.5 | 3.75
328.15 K, x1 = 0.6015 | 2.25 | 5.4
328.15 K, x1 = 0.7036 | 1.99 | 7.6
328.15 K, x1 = 0.8038 | 1.74 | 10.4
328.15 K, x1 = 1 | 1.32 | 17.2
333.15 K, x1 = 0.1999 | 3.15 | 1.56
333.15 K, x1 = 0.3001 | 3.16 | 1.9
333.15 K, x1 = 0.4001 | 2.98 | 2.5
333.15 K, x1 = 0.5006 | 2.75 | 3.35
333.15 K, x1 = 0.6015 | 2.48 | 4.81
333.15 K, x1 = 0.7036 | 2.21 | 6.8
333.15 K, x1 = 0.8038 | 1.95 | 9.2
333.15 K, x1 = 0.9012 | 1.72 | 12.1
333.15 K, x1 = 1 | 1.51 | 14.8
338.15 K, x1 = 0.1027 | 2.98 | 1.21
338.15 K, x1 = 0.1999 | 3.41 | 1.43
338.15 K, x1 = 0.3001 | 3.42 | 1.73
338.15 K, x1 = 0.4001 | 3.26 | 2.23
338.15 K, x1 = 0.5006 | 3.02 | 2.95
338.15 K, x1 = 0.8038 | 2.19 | 8.1
338.15 K, x1 = 0.9012 | 1.95 | 10.6
338.15 K, x1 = 1 | 1.72 | 12.9
343.15 K, x1 = 0.1027 | 3.21 | 1.13
343.15 K, x1 = 0.1999 | 3.66 | 1.33
343.15 K, x1 = 0.3001 | 3.71 | 1.62
343.15 K, x1 = 0.4001 | 3.54 | 2.06
343.15 K, x1 = 0.6015 | 3 | 3.86
343.15 K, x1 = 0.8038 | 2.42 | 7.3
343.15 K, x1 = 0.9012 | 2.15 | 9.5
343.15 K, x1 = 1 | 1.92 | 11.3

O=C1CCCO1 + [S-]C#N.COCCN1C=[N+](C=C1)C
x2 = 0
Conditions | viscosity [mPa·s]
288.15 K | 2.02
293.15 K | 1.86
298.15 K | 1.72
303.15 K | 1.59
308.15 K | 1.48
318.15 K | 1.29
323.15 K | 1.21
328.15 K | 1.14
333.15 K | 1.08
338.15 K | 1.02
343.15 K | 0.97
